Structures can show the parent of a compound that is named as a salt.
Molecular target: human Mnk2a (Homo sapiens (Human), UniProt Q9HBH9)
Assay: Mnk2a in vitro kinase assay (indirect competitive fluorescence polarization)
Format: biochemical
Settings: pre-activated GST-Mnk2a 2.5 nM, 20 μM ATP, 30 μM substrate peptide; read-out: MNK2 IC50
Method: Inhibitory potency of compounds against Mnk1, Mnk2a and other kinases was assessed with assays based on a format known to those skilled in the art as the indirect (competitive) fluorescence polarization. The assay detection system comprises a small fluorophore-labeled phospho-peptide (termed ligand) bound to a phospho-specific antibody. The product generated by the kinase reaction competes with the ligand for antibody binding. Based on the larger molecular volume of the bound ligand, which results in a lower rotation rate in solution, its emitted light has a higher degree of polarization than the one from the free ligand.
In brief, the open reading frames of human Mnk1 and Mnk2a were amplified from cDNA using the forward/reverse primer pairs
(utilized restriction sites underlined), respectively, and cloned into the BamHI and SalI sites of the vector pGEX-4T1 (Amersham, Sweden, cat. no. 27-4580-01). These constructs allow prokaryotic expression of Mnk1 or Mnk2a as fusion protein with a N-terminal glutathione S-transferase (GST) tag, referred to as GST-Mnk1 or GST-Mnk2a. The following expression and purification procedure was identical for GST-Mnk1 and GST-Mnk2a, referring in general to GST-Mnk, when not distinguishing between the two isoforms. Expression of GST-Mnk was in E. coli BL21 (Merck Biosciences, Germany, cat. no. 69449). Cells were grown in LB-Bouillon (Merck, Germany, cat. no. 1.10285) supplemented with 100 μg/ml ampicillin (Sigma, Germany, cat. no. A9518) at 37° C. […] Cells harvested by centrifugation were resuspended in 10 ml lysis buffer (50 mM tris(hydroxymethyl)aminomethane hydrochloride (Tris/HCl, Sigma, Germany, cat. no. T5941) pH 7.5, 300 mM sodium chloride (NaCl, Sigma, Germany, cat. no. S7653), 5% (w/v) glycerol (Sigma, Germany, cat. no. G5516), 3 mM DTT dithiotreitol (DTT, Sigma, Germany, cat. no. D9779)) per gram wet weight cell pellet. Lysates were prepared by disruption of cells with a sonifier and subsequent clearing by centrifugation at 38000 g for 45 min at 4° C.
The lysate was applied to a GSTPrep FF 16/10 column (Amersham, Sweden, cat. no. 17-5234-01) equilibrated with lysis buffer. Removal of unbound material was with 3 column volumes (CV) lysis buffer. Elution was with 2 CV of elution buffer (50 mM Tris/HCl pH 7.5, 300 mM NaCl, 5% (w/v) glycerol, 20 mM glutathione (Sigma, Germany, cat. no. G4251)). Peak fractions were pooled and the protein transferred into storage buffer (50 mM Tris/HCl pH 7.5, 200 mM NaCl, 0.1 mM ethylene glycol[…] bis(2-aminoethylether)-N,N,N′,N′-tetraacetic acid (EGTA, Aldrich, Germany, cat. no. 23, 453-2), 1 mM DTT, 10% (w/v) glycerol, 0.5 M sucrose (Sigma, Germany, cat. no. S0389) by gel filtration on a PD10 desalting column (Amersham, Sweden, cat. no. 17-0851-01). Aliquots were shock frozen in liquid nitrogen and stored at −80° C.
Activation of Mnk1 and Mnk2a was at a concentration of 2.5 μM of either purified GST-Mnk1 or GST-Mnk2a by incubation with 150 nM pre-activated NHis-ERK2 (see ERK2 assay for preparation) and 50 μM adenosine triphosphate (ATP, Sigma, cat. no. A2699) in a buffer comprising 20 mM N-(2-hydroxyethyl)piperazine-N′-(2-ethanesulfonic acid) (HEPES, Fluka, Germany, cat. no 54459)/potassium hydroxide (KOH, Roth, Germany, cat. no 6751.1) pH 7.4, 10 mM magnesium chloride (MgCl2, Sigma, Germany, cat. no. M2670), 0.25 mM DTT, 0.05% (w/v) polyoxyethylene 20 stearylether (Brij 78, Sigma, Germany, cat. no. P4019) (HMDB buffer) for 45 min at 30° C. After the incubation, the preparation was aliquoted into single-use samples, shock frozen in liquid nitrogen, stored at −80° C. and utilized for Mnk1 or Mnk2a kinase assays as detailed below.
The serine residue phosphorylated by Mnk kinases is underlined.

human Mnk2a, sequence (Q9HBH9 whole entry): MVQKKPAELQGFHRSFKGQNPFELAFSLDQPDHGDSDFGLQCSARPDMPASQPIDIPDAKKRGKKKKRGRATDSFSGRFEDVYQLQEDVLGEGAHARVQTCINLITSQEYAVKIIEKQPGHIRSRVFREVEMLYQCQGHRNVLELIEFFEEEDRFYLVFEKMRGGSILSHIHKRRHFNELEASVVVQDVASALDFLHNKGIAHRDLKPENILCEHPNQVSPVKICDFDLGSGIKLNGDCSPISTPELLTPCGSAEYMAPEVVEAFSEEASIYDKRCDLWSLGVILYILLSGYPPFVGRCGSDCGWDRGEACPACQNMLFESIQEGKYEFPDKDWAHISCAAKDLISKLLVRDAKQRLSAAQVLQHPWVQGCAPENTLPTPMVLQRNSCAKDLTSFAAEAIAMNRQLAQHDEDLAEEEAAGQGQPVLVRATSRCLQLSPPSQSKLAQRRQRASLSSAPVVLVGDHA

Structure (SMILES)	IC50 [nM]
Cc1c(C(=O)NCC#N)sc2ncnc(Nc3ccc(C#N)cc3OC(CF)CF)c12 [Compound 53, 4-(4-Cyano-2-(2-fluoro-1-fluoromethyl-ethoxy)-phenylamino]-5-methyl-thieno[2,3-d]pyrimidine-6-carboxylic acid cyanomethyl-amide]	7
Cc1c(C(=O)NCCCN(C)C)sc2ncnc(Nc3ccc(F)cc3OCC3(CC#N)CC3)c12 [Compound 32-15]	78
Cc1c(C(=O)O)sc2ncnc(Nc3cccnc3OC(C)C(F)(F)F)c12 (stereo not drawn) [Compound 21-2, 5-Methyl-4-(2-(1,1,1-trifluoropropan-2-yloxy)pyridin-3-ylamino)thieno[2,3-d]pyrimidine-6-carboxylic acid]	15
COC(=O)c1sc2ncnc(Nc3cccnc3OC(C)CCN)c2c1C (stereo not drawn) [Compound 15-2, Methyl 4-(2-((4-aminobutan-2yloxy)pyridin-3ylamino)-5-methyl-thieno[2,3-d]pyrimidine-6-carboxylate trifluoroacetate]	174
Cc1c(C(N)=O)sc2ncnc(Nc3ccc(F)cc3O[C@@H](C)CN)c12 (racemic) [Compound 6-2, (R) and (S)-4-(2-(1-aminopropan-2-yloxy)-4-fluorophenylamino)-5-methylthieno[2,3-d]pyrimidine-6-carboxamide trifluoroacetate]	90
Cc1c(C(N)=O)sc2ncnc(Nc3cccnc3OCC(F)F)c12 [Compound 30-3, 4-(2-(2,2-Difluoroethoxy)pyridin-3-ylamino)-5-methyl-thieno[2,3-d]pyrimidine-6-carboxamide]	18
Cc1c(C(=O)O)sc2ncnc(Nc3ccc(F)cc3OC(CF)CF)c12 [Compound 23-2, 4-(2-(1,3-Difluoropropan-2-yloxy)-4-fluorophenylamino)-5-methyl-thieno[2,3-d]pyrimidine-6-carboxylic acid]	6
Cc1c(C(=O)NCCCN(C)C)sc2ncnc(Nc3cccnc3OC(C)CCNS(C)(=O)=O)c12 (stereo not drawn) [Compound 46, 4-[2-(3-Methanesulfonylamino-1-methyl-propoxy)-pyridin-3-ylamino]-5-methyl-thieno[2,3-d]pyrimidine-6-carboxylic acid (3-dimethylamino-propyl)-amide]	84
COC(=O)c1sc2ncnc(Nc3ccc(F)cc3OC(C)CCNC(C)=O)c2c1C (stereo not drawn) [Compound 13-2, Methyl 4-(2-(4-acetamidobutan-2-yloxy)-4-fluorophenyl-amino)-5-methyl-thieno[2,3-d]pyrimidine-6-carboxylate]	471
Cc1c(C(=O)NCCO)sc2ncnc(Nc3ccc(F)cc3OC(C)CN)c12 (stereo not drawn) [Compound 2-3, 4-(2-(1-Amino-propan-2-yloxy)-4-fluorophenylamino)-N-(2-hydroxy-ethyl)-5-methyl-thieno[2,3-d]-pyrimidine-6-carboxamide]	50
Cc1c(C(N)=O)sc2ncnc(Nc3ccc(F)cc3OC(CO)CO)c12 [Compound 32-30]	56
Cc1c(C(=O)O)sc2ncnc(Nc3ccc(F)cc3OC(C)CF)c12 (stereo not drawn) [Compound 32.7]	5
Cc1c(C(=O)N[C@H]2C[C@@H]2N)sc2ncnc(Nc3cccnc3OC(C)C)c12 [Compound 36-6, N-((1S,2S)-2-Aminocyclopropyl)-4-(2-isopropoxypyridin-3-ylamino)-5-methylthieno[2,3-d]pyrimidine-6-carboxamide]	55
COC(=O)c1sc2ncnc(Nc3ccc(F)cc3OC(C)C(=O)NCCN)c2c1C (stereo not drawn) [Compound 58, 4-{2-[1-(2-Amino-ethylcarbamoyl)-ethoxyl]-4-fluoro-phenylamino}-5-methyl-thieno[2,3-d]pyrimidine-6-carboxylic acid methyl ester]	119
COC(=O)c1sc2ncnc(Nc3ccc(F)cc3OC(C)CC(C)(C)O)c2c1C (stereo not drawn) [Compound 20-1, Methyl 4-(4-fluoro-2-(4-hydroxy-4-methylpentan-2-yloxy)phenylamino)-5-methyl-thieno[2,3-d]pyrimidine-6-carboxylate]	142
